Format in all cases: functional
In one experiment the test system is Staphylococcus aureus. The experiment can be described thus: Antimicrobial activity against Staphylococcus aureus assessed as diameter of growth inhibition zone at 1 mg/ml after 24 hr by nutrient agar well diffusion method. As to conditions: for zone of inhibition at 1000 µg/mL: read-out: DIZ. (A growth-free zone around the sample is the usual read-out of agar diffusion tests.)

A further experiment deals with Candida albicans. The experiment can be described thus: Antimicrobial activity against Candida albicans assessed as diameter of growth inhibition zone at 1 mg/ml after 48 hr by potato dextrose agar well diffusion method.
The test system of a further experiment is Bacillus subtilis. The experiment can be described thus: Antimicrobial activity against Bacillus subtilis assessed as diameter of growth inhibition zone at 1 mg/ml after 24 hr by nutrient agar well diffusion method. As to conditions: for zone of inhibition at 1000 µg/mL: read-out: DIZ.
The subject of the next experiment is Aspergillus niger. The experiment can be described thus: Antimicrobial activity against Aspergillus niger assessed as diameter of growth inhibition zone at 1 mg/ml after 48 hr by potato dextrose agar well diffusion method.
In another experiment the test system is Klebsiella pneumoniae. The experiment can be described thus: Antimicrobial activity against Klebsiella pneumoniae assessed as diameter of growth inhibition zone at 1 mg/ml after 24 hr by nutrient agar well diffusion method.
For a further experiment, the system named is Escherichia coli. The experiment can be described thus: Antimicrobial activity against Escherichia coli assessed as diameter of growth inhibition zone at 1 mg/ml after 24 hr by nutrient agar well diffusion method. To be noted: read-out: DIZ.

Calls of active or inactive are those of the source. The rule behind the calls is not given here.

As to `N#CC(C#N)/N=N/c1nc2ccccc2[nH]1`, the inhibition result with Staphylococcus aureus, with Candida albicans, with Bacillus subtilis, in the experiment with Aspergillus niger and with Klebsiella pneumoniae was “inactive” throughout. In the experiment on Escherichia coli, the zone of inhibition at 1000 µg/mL was 10.8 mm.

In the case of NYSTATIN, the results for the inhibition zone (IZ) in the experiment with Candida albicans and in the experiment on Aspergillus niger were 36 mm and 25 mm, respectively.

Take `CCOC(=O)C(C#N)/N=N/c1nc2ccccc2[nH]1` (stereo not drawn): the zone of inhibition at 1000 µg/mL in the experiment with Staphylococcus aureus was 7.5 mm; with Candida albicans (read-out: DIZ), 9 mm; in the experiment on Bacillus subtilis, 8 mm; in the experiment with Aspergillus niger (read-out: DIZ) it was 8.5 mm; in the experiment with Klebsiella pneumoniae (read-out: DIZ) it was 9 mm; with Escherichia coli, 8.5 mm.

In the case of `CC1(C)S[C@@H]2[C@H](NC(=O)[C@H](N)c3ccccc3)C(=O)N2[C@H]1C(=O)O` [AMPICILLIN], the figures for the zone of inhibition at 1000 µg/mL with Staphylococcus aureus, with Bacillus subtilis and in the experiment with Escherichia coli were 30.5 mm, 29.5 mm and 31.2 mm, respectively. Further, the inhibition entry in the experiment with Klebsiella pneumoniae was “inactive”.

(Values after ChEMBL document CHEMBL3044711, “Synthesis, characterization, and antimicrobial activity of some new 2-diazo-benzimidazole derivatives and their Ni(II), Cu(II), and Ag(I) complexes” (2013).)
